ChEMBL document CHEMBL4011582, “Human drug-induced liver injury severity is highly associated with dual inhibition of liver mitochondrial function and bile salt export pump” (Hepatology, 2014)
pIC50: −log10 of the molar value.

Key:
clinical = settings: human
Liver = format: ADME, mitochondria, Rattus norvegicus, Sprague-Dawley
Bile salt export pump = Bile salt export pump (Homo sapiens, UniProt O95342); format: ADME; settings: read-out: IC50
Chain of Bile salt export pump (O95342 whole entry): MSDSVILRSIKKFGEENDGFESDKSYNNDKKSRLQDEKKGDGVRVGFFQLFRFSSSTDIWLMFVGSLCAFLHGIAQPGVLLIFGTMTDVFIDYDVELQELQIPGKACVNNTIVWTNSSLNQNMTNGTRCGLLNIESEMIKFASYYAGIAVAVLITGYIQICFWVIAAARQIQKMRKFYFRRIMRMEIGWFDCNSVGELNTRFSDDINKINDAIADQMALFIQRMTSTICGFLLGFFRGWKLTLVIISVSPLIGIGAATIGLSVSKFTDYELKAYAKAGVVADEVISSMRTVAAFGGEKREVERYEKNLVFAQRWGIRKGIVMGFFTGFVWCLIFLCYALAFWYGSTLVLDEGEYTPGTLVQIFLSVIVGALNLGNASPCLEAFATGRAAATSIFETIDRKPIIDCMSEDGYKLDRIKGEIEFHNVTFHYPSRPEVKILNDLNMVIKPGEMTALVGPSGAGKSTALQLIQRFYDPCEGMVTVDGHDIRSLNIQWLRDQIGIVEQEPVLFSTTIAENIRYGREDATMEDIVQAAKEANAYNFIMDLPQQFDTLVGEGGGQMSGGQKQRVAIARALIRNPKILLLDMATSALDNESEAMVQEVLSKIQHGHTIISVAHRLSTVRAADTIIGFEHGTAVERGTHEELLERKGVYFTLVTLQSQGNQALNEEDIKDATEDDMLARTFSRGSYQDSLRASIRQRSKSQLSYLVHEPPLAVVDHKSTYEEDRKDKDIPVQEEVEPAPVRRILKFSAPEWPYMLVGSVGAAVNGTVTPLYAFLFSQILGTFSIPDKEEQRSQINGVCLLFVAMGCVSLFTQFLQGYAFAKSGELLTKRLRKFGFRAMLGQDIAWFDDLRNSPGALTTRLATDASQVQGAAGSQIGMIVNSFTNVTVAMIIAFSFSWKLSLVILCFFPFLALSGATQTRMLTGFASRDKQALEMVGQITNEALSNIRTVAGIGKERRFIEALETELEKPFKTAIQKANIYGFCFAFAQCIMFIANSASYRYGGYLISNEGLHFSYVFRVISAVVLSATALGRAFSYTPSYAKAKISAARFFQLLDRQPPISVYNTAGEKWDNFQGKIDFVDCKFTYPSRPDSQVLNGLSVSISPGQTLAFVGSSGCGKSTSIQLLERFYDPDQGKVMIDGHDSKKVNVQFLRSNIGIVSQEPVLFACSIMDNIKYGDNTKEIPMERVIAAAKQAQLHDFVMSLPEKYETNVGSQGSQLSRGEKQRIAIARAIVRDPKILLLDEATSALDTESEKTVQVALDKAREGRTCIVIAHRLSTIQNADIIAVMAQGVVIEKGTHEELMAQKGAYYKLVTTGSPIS

For `CC(C)/N=c1\cc2n(-c3ccc(Cl)cc3)c3ccccc3nc-2cc1Nc1ccc(Cl)cc1` [CLOFAZIMINE], the Cmax (clinical) was 1480 nM and the IC50 (Liver) was “Non-Toxic”.
With `COC(=O)C1=C(C)NC(C)=C(C(=O)OCCN(C)Cc2ccccc2)C1c1cccc([N+](=O)[O-])c1` (stereo not given) [NICARDIPINE] the Cmax (clinical) was 81 nM.
In the case of `CN1CCN(CCCN2c3ccccc3Sc3ccc(C(F)(F)F)cc32)CC1` [TRIFLUOPERAZINE], the Cmax (clinical) was 5.3 nM and the IC50 (Liver) was “Non-Toxic”.
With `CC(C)c1nc(CN(C)C(=O)N[C@H](C(=O)N[C@@H](Cc2ccccc2)C[C@H](O)[C@H](Cc2ccccc2)NC(=O)OCc2cncs2)C(C)C)cs1` [RITONAVIR] the Cmax (clinical) was 19700 nM and the IC50 (Liver) was “Non-Toxic”.
Work on `CC(=O)N1CCN(c2ccc(OCC3COC(Cn4ccnc4)(c4ccc(Cl)cc4Cl)O3)cc2)CC1` (stereo not given) [KETOCONAZOLE] yielded a Cmax (clinical) of 12500 nM.
With `COc1ccccc1Oc1c(NS(=O)(=O)c2ccc(C(C)(C)C)cc2)nc(-c2ncccn2)nc1OCCO` [BOSENTAN] the pIC50 (Bile salt export pump) was 4.54 and the Cmax (clinical) was 7430 nM.
With `CC[C@H](C)C(=O)O[C@H]1C[C@@H](C)C=C2C=C[C@H](C)[C@H](CC[C@@H]3C[C@@H](O)CC(=O)O3)[C@H]21` [LOVASTATIN] the Cmax (clinical) was 25 nM and the IC50 (Liver) was “Non-Toxic”.
With `C#C[C@]1(O)CC[C@H]2[C@@H]3CCC4=Cc5oncc5C[C@]4(C)[C@H]3CC[C@@]21C` [DANAZOL] the Cmax (clinical) was 750 nM.
Compound `COc1cc2ncnc(Nc3ccc(F)c(Cl)c3)c2cc1OCCCN1CCOCC1` [GEFITINIB] has a Cmax (clinical) of 356 nM.
Work on `COc1ccc(Cl)cc1C(=O)NCCc1ccc(S(=O)(=O)NC(=O)NC2CCCCC2)cc1` [GLYBURIDE] yielded a Cmax (clinical) of 210 nM.
With `CCCCC1=NC2(CCCC2)C(=O)N1Cc1ccc(-c2ccccc2-c2nnn[nH]2)cc1` [IRBESARTAN] the Cmax (clinical) was 3500 nM and the IC50 (Liver) was “Non-Toxic”.
For `CC(C)(C)NC(=O)[C@@H]1C[C@@H]2CCCC[C@@H]2CN1C[C@@H](O)[C@H](Cc1ccccc1)NC(=O)[C@H](CC(N)=O)NC(=O)c1ccc2ccccc2n1`, the Cmax (clinical) was 3360 nM and the IC50 (Liver) was “Non-Toxic”.
In the case of `Cc1c(C)c2c(c(C)c1O)CCC(C)(COc1ccc(CC3SC(=O)NC3=O)cc1)O2` (stereo not given) [TROGLITAZONE], the Cmax (clinical) was 6390 nM.
In the case of `Cc1ccc(NC(=O)c2ccc(CN3CCN(C)CC3)cc2)cc1Nc1nccc(-c2cccnc2)n1` [IMATINIB], the Cmax (clinical) was 7090 nM and the IC50 (Liver) was “Non-Toxic”.
Work on `CCC(=O)O[C@H]1[C@H](O[C@@H]2[C@@H](C)[C@H](O[C@H]3C[C@@](C)(OC)[C@@H](O)[C@H](C)O3)[C@@H](C)C(=O)O[C@H](CC)[C@@](C)(O)[C@H](O)[C@@H](C)C(=O)[C@H](C)C[C@@]2(C)O)O[C@H](C)C[C@@H]1N(C)C.CCCCCCCCCCCCOS(=O)(=O)O` [ERYTHROMYCIN ESTOLATE] yielded a Cmax (clinical) of 4200 nM.
For `CN(C)CCC(c1ccc(Br)cc1)c1ccccn1` (stereo not given) [BROMPHENIRAMINE], the Cmax (clinical) was 36 nM and the IC50 (Liver) was “Non-Toxic”.
For `CC(COc1ccccc1)N(CCCl)Cc1ccccc1` (stereo not given) [PHENOXYBENZAMINE], the Cmax (clinical) was 197 nM and the IC50 (Liver) was “Non-Toxic”.
For `Nc1nc(=O)c2nc(CNc3ccc(C(=O)N[C@@H](CCC(=O)O)C(=O)O)cc3)cnc2[nH]1` [FOLIC ACID], the Cmax (clinical) was 135 nM and the IC50 (Liver) was “Non-Toxic”.
For `COC(=O)C1=C(C)NC(C)=C(C(=O)OCC(C)C)C1c1ccccc1[N+](=O)[O-]` (stereo not given) [NISOLDIPINE], the Cmax (clinical) was 12.9 nM and the IC50 (Liver) was “Non-Toxic”.
`CCCN(CCC)C(=O)Cc1c(-c2ccc(Cl)cc2)nc2ccc(Cl)cn12` [ALPIDEM] gave a Cmax (clinical) of 285 nM.
For `CC(C)n1c(/C=C/C(O)CC(O)CC(=O)O)c(-c2ccc(F)cc2)c2ccccc21` (stereo not given) [FLUVASTATIN], the Cmax (clinical) was 663 nM and the IC50 (Liver) was “Non-Toxic”.
For `O=C(O)Cc1ccccc1Nc1c(Cl)cccc1Cl` [DICLOFENAC], the pIC50 (Bile salt export pump) was 4.36.
For `Cc1c(O)cccc1C(=O)N[C@@H](CSc1ccccc1)[C@H](O)CN1C[C@H]2CCCC[C@H]2C[C@H]1C(=O)NC(C)(C)C`, the Cmax (clinical) was 7040 nM.
Compound `CCc1ccc(CCOc2ccc(CC3SC(=O)NC3=O)cc2)nc1` (stereo not given) [PIOGLITAZONE] has a Cmax (clinical) of 2950 nM.
For `CCN(CC)CC#CCOC(=O)C(O)(c1ccccc1)C1CCCCC1` (stereo not given) [OXYBUTYNIN], the Cmax (clinical) was 22 nM and the IC50 (Liver) was “Non-Toxic”.
In the case of `CO[C@H]1/C=C/O[C@@]2(C)Oc3c(C)c(O)c4c(c3C2=O)C2=NC3(CCN(CC(C)C)CC3)NC2=C(NC(=O)/C(C)=C\C=C\[C@H](C)[C@H](O)[C@@H](C)[C@@H](O)[C@@H](C)[C@H](OC(C)=O)[C@@H]1C)C4=O` [RIFABUTIN], the Cmax (clinical) was 685 nM and the IC50 (Liver) was “Non-Toxic”.
In the case of `Cc1ncc2n1-c1ccc(Cl)cc1C(c1ccccc1F)=NC2` [MIDAZOLAM], the Cmax (clinical) was 650 nM and the IC50 (Liver) was “Non-Toxic”.
`Clc1ccccc1C(c1ccccc1)(c1ccccc1)n1ccnc1` [CLOTRIMAZOLE] showed a Cmax (clinical) of 87 nM.
For `COCCOC(=O)C1=C(C)NC(C)=C(C(=O)OC(C)C)C1c1cccc([N+](=O)[O-])c1` (stereo not given) [NIMODIPINE], the Cmax (clinical) was 195 nM.
`Oc1ncnc2[nH]ncc12` [ALLOPURINOL] gave a pIC50 (Bile salt export pump) of under 4.00.
For `CC(C)(C)NC(=O)[C@@H]1CN(Cc2cccnc2)CCN1C[C@@H](O)C[C@@H](Cc1ccccc1)C(=O)N[C@H]1c2ccccc2C[C@H]1O.O`, the Cmax (clinical) was 11700 nM and the IC50 (Liver) was “Non-Toxic”.
`CNC(=O)c1cc(Oc2ccc(NC(=O)Nc3ccc(Cl)c(C(F)(F)F)c3)cc2)ccn1` [SORAFENIB] gave a Cmax (clinical) of 132 nM.
For `CC(=O)[C@H]1CC[C@H]2[C@@H]3CCC4=CC(=O)CC[C@]4(C)[C@H]3CC[C@]12C` [PROGESTERONE], the Cmax (clinical) was 193 nM.
In the case of `Cc1ccc(N(CC2=NCCN2)c2cccc(O)c2)cc1` [PHENTOLAMINE], the Cmax (clinical) was 86 nM and the IC50 (Liver) was “Non-Toxic”.
In the case of `CCCCc1nc(Cl)c(CO)n1Cc1ccc(-c2ccccc2-c2nnn[nH]2)cc1` [LOSARTAN], the Cmax (clinical) was 651 nM and the IC50 (Liver) was “Non-Toxic”.
For `CC(=O)O[C@H]1C(=O)[C@@]2(C)[C@H]([C@H](OC(=O)c3ccccc3)[C@]3(O)C[C@H](OC(=O)[C@H](O)[C@@H](NC(=O)c4ccccc4)c4ccccc4)C(C)=C1C3(C)C)[C@]1(OC(C)=O)CO[C@@H]1C[C@@H]2O` [PACLITAXEL], the IC50 (Liver) was “Non-Toxic”.
In the case of `COc1cc(C(=O)NS(=O)(=O)c2ccccc2C)ccc1Cc1cn(C)c2ccc(NC(=O)OC3CCCC3)cc12` [ZAFIRLUKAST], the Cmax (clinical) was 1210 nM.
Compound `CCCc1nc2c(C)cc(-c3nc4ccccc4n3C)cc2n1Cc1ccc(-c2ccccc2C(=O)O)cc1` has a Cmax (clinical) of 851 nM.
For `CC1=C(/C=C/C(C)=C/C=C/C(C)=C\C(=O)O)C(C)(C)CCC1` [ISOTRETINOIN], the Cmax (clinical) was 2870 nM.
With `CC(C)(C)NCC(O)c1ccc(O)c(CO)c1` (stereo not given) [ALBUTEROL] the Cmax (clinical) was 58 nM and the IC50 (Liver) was “Non-Toxic”.
With `CS(=O)(=O)CCNCc1ccc(-c2ccc3ncnc(Nc4ccc(OCc5cccc(F)c5)c(Cl)c4)c3c2)o1` [LAPATINIB] the Cmax (clinical) was 4180 nM and the IC50 (Liver) was “Non-Toxic”.
With `CC(C)(C)NC(=O)[C@H]1CC[C@H]2[C@@H]3CC[C@H]4NC(=O)C=C[C@]4(C)[C@H]3CC[C@]12C` [FINASTERIDE] the Cmax (clinical) was 99 nM and the IC50 (Liver) was “Non-Toxic”.
For `CC(C)CN(C[C@@H](O)[C@H](Cc1ccccc1)NC(=O)O[C@H]1CCOC1)S(=O)(=O)c1ccc(N)cc1`, the Cmax (clinical) was 15200 nM and the IC50 (Liver) was “Non-Toxic”.
In the case of `NS(=O)(=O)c1cc(C(=O)O)c(NCc2ccco2)cc1Cl` [FUROSEMIDE], the Cmax (clinical) was 18100 nM.
`N[C@@H](Cc1cc(I)c(Oc2ccc(O)c(I)c2)c(I)c1)C(=O)O` [LIOTHYRONINE] gave a Cmax (clinical) of 108 nM.
With `CCC(=O)O[C@]1(C(=O)CCl)[C@@H](C)C[C@H]2[C@@H]3CCC4=CC(=O)C=C[C@]4(C)[C@@]3(F)[C@@H](O)C[C@@]21C` [CLOBETASOL PROPIONATE] the Cmax (clinical) was 43 nM and the IC50 (Liver) was “Non-Toxic”.
